# Measured values from patent publication US5707855A (priority 1996, dated 1998).
# Key:
# [1] = MICs of common antibiotics in the presence of sub-MIC levels of cationic peptides; assay type: cell-based; conditions: peptide at 1/2 MIC levels
# Procedure: (§1) The minimum inhibitory concentrations of (MIC) of CEME, CEMA and melittin were determined for a number of different bacteria (Table 2). Briefly, cells were grown overnight at 37° C. in LB-S (Luria broth without any salt supplement) and diluted one in 10,000 in the same medium to give concentrations of about 10^4 to 10^5 CFU/ml. The broth dilutions were set up in a 96 well microtiter plate by putting 200 μl of LB-S containing the initial concentration of antibiotic or compound in column 1 and 100 μl of the same medium in columns 2-12. The compounds were diluted by taking 100 μl of broth from column 1 and mixing it with column 2, resulting in a one in two dilution. This was continued to column 10. Finally, 10 μl of bacteria were pipetted into columns 1-11, and the plates incubated overnight at 37° C. The next day the plates were scored for growth in the wells, and the MIC determined.
# The ability of the cationic peptides to work synergystically was examined by determining the MIC values for some commonly used antibiotics in the presence of sub-MIC levels of cationic peptides (Table 4). […] This may be due to the high membrane permeabilizing activity of CEMA (see below). However, the peptides did lower the MIC of polymyxin B, possibly due to the fact that they are all taken up by the same pathway and are therefore aiding each other's uptake. Of interest is the influence that melittin has on the MIC of polymyxin B, given the […] membrane permeabilizing activity of melittin.
# [2] = test system: E. cloacae 218R1; assay type: cell-based; conditions: 10 μM NPN; fluorescence increase
# Text: (§2) The second assay determined membrane permeability by the ability of 1-N-phenylnaphthylamine (NPN), a small fluorescent probe, to insert itself into the membrane. Normally, very little NPN can penetrate the outer membrane, but in the presence of a membrane permeabilizer it can insert into the hydrophobic membrane resulting in an increase in fluorescence (FIGS. 7 and 8). This N-phenylnaphthylamine uptake assay was previously described by Loh, et al., Antimicrobial Agents and Chemo., 26:546, 1984. Cells were prepared exactly the same as for the lysozyme lysis assay. 1-N-phenylnaphthylamine (NPN) was dissolved in acetone at a concentration of 500 μM. NPN fluorescence was measured in a Perkin-Elmer 650-10S fluorescent spectrophotometer using excitation and emission wavelengths set to 350 nm and 420 nm respectively, with slit widths of 5 nm. The assay was standardized by adding 20 μl of NPN (final concentration of 10 μM) and 10 μl of 0.64 mg/ml of polymyxin B (final concentration of 6.4 μg/ml) into 1 ml of cells, and adjusting the resulting fluorescence to read 90% deflection (90 arbitrary units). Various compounds were tested by adding 10 μl of different concentrations to a cuvette containing 1 ml of cells and 10 μM NPN. Permeabilizing activity was designated as the total fluorescence minus the fluorescence due to NPN alone. Following the fluorescence measurement, the OD600 of the cells was taken to ensure no significant cell lysis had occurred.
# [3] = test system: P. AERUGINOSA H309; assay type: cell-based; conditions: 10 μM NPN; fluorescence increase
# Text: as §2
# [4] = test system: P. aeruginosa H103 LPS; assay: Dansyl polymyxin (DPx) displacement from purified LPS; assay type: binding; conditions: on a μM basis
# Procedure: In this assay, DPx was incubated with LPS to saturate the binding sites and then, while polycationic compounds are titrated into the reaction, displacement of the DPx was monitored by the decrease in fluorescence (FIG. 9).
# The method of Moore, et al., (Antimicrobial Agents and Chemo., 29:496, 1987), was used to test how much DPx was needed to saturate the binding sties on LPS. Briefly, 5 μl samples of 100 μM DPx were titrated sequentially into 1 ml of 3 μg/ml of LPS until a maximum fluorescence was reached. The fluorescence was measured in a Perkin-Elmer 650-10S fluorescence spectrophotometer with an excitation wavelength of 340 nm and an emission wavelength of 485 nm using slit widths of 5 nm. […] For the binding inhibition assays (Moore, et al., Antimicrobial Agents and Chemo., 29:496, 1987), 2.5 μM DPx was added to 3 μg/ml of H103 LPS in 5 mM HEPES pH 7.2. The test compounds were added 5 μl at a time and the decrease in fluorescence due to displacement of the DPx from the LPS was recorded.
# [5] = test system: E. cloacae 218R1; assay: Lysozyme lysis assay (outer membrane permeabilization); assay type: cell-based; conditions: 50 μg/ml lysozyme; decrease in OD600
# Procedure: (§3) Membrane permeabilization by polycationic compounds was measured in two different assays. The first assay measured membrane disruption by the ability of lysozyme to reach the periplasm and cause cell lysis. […] The uptake of lysozyme into whole cells due to membrane permeabilization by various compounds was previously described in Hancock, et al., Antimicrobial Agents and Chemo., 19:777, 1981. Overnight cultures of P. aeruginosa H309 or E. cloacae 218R1 grown in LB-S were diluted 1 in 50 in fresh medium and grown to an OD600 =0.5-0.6. The cells were harvested in a Silencer H-103N clinical centrifuge at 1800 g for 10 min, washed once with one volume of assay buffer (5 mM HEPES pH 7.2, 5 mM KCN), and resuspended in the same buffer to an OD600 of 0.5. Assays consisted of 600 μl of cells with 50 μg/ml of chicken egg white lysozyme and varying concentrations of cationic compounds. Cell lysis was measured as a decrease in the OD600 in a Perkin-Elmer dual beam spectrophotometer. Parallel experiments performed without lysozyme enabled the measurement of the lytic activity of the compounds themselves. To test whether or not permeability to lysozyme could be inhibited by divalent cations, various concentrations of MgCl2 were added to the assay after the addition of lysozyme and before the addition of the test compound.
# [6] = test system: P. AERUGINOSA H309; assay: as above; assay type: cell-based; conditions: 50 μg/ml lysozyme; decrease in OD600
# Procedure: as §3
# [7] = test system: S. typhimurium; assay type: cell-based; conditions: C590 versus C587
# Procedure: as §1
# [8] = test system: E. coli; assay type: cell-based; conditions: strain UB1005, Parent of DC2
# Procedure: as §1
# [9] = test system: E. cloacae; assay type: cell-based; conditions: strain 218S, Parent of 218R1
# Procedure: as §1
# [10] = test system: P. aeruginosa; assay type: cell-based; conditions: against many bacterial species
# Procedure: as §1
smiles,measurement,setting,value
CC[C@H](C)[C@H](NC(=O)CNC(=O)[C@@H](NC(=O)[C@H](CCCCN)NC(=O)[C@H](CCCCN)NC(=O)[C@H](Cc1ccccc1)NC(=O)[C@H](CC(C)C)NC(=O)[C@H](CCCCN)NC(=O)[C@H](Cc1c[nH]c2ccccc12)NC(=O)[C@@H](N)CCCCN)[C@@H](C)CC)C(=O)NCC(=O)N[C@@H](C)C(=O)N[C@H](C(=O)N[C@@H](CC(C)C)C(=O)N[C@@H](CCCCN)C(=O)N[C@H](C(=O)N[C@@H](CC(C)C)C(=O)N[C@H](C(=O)N[C@H](C(=O)NCC(=O)N[C@@H](CC(C)C)C(=O)N1CCC[C@H]1C(=O)N[C@@H](C)C(=O)N[C@@H](CC(C)C)C(=O)N[C@@H](CCCCN)C(=O)N[C@@H](CC(C)C)C(=O)N[C@H](C(=O)N[C@@H](CCCCN)C(=O)O)[C@@H](C)O)[C@@H](C)O)[C@@H](C)O)C(C)C)C(C)C [CEMA],"Reduction of the MICs of ceftazidime, imipenem and tetracycline",[1],2 fold
same,Activity in opening up the membrane to NPN,[2],equally active
same,Activity in opening up the membrane to NPN,[3],equally active
same,Affinity for LPS compared with polymyxin B,[4],higher affinity for LPS than polymyxin B
same,"Permeabilization of the outer membrane to lysozyme, compared with polymyxin B",[5],stronger permeabilizer for lysozyme than polymyxin B
same,"Permeabilization of the outer membrane to lysozyme, compared with polymyxin B",[6],stronger permeabilizer for lysozyme than polymyxin B
same,Sensitivity of defensin sensitive strain C590 relative to parent (MIC change),[7],four-fold more sensitive
same,MIC,[8],2.8 µg/mL
same,MIC,[9],2.8 µg/mL
same,Antibiotic activity compared with CEME,[10],two-fold improved antibiotic activity
